In ChEMBL document CHEMBL1201862, “PubChem BioAssay data set” (2004):
The source made the active and inactive calls.

Assays:
[1] = inhibitors of clade B AD8 Env fusion, dose response, cell-based, cherry-pick (AID 652062); format: functional;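 note: luciferase signal from cell-cell fusion driven by HIV-1 clade B AD8 Env; potency is for inhibitors of fusion seen as a drop in luminescence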
[2] = ZM109 Env clade C HIV-1 fusion inhibitors, dose response, HeLa effector, CEM target cells, luciferase, cherry-pick (AID 652058); format: functional, cell-based
[3] = off-target signal loss in HeLa-CEM21 co-culture – HeLa F-luc CTL cells, cherry-picked, counter-screen for HIV-1 Env fusion inhibitor project, dose response (AID 652040); format: functional, cell-based;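 note: potency for signal decrease marking cytotoxic or nonspecific inhibition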
[4] = inhibitors of HIV Env-driven cell fusion, dose response, cherry-pick (AID 652057); format: functional, cell-based
HeLa = assay: HeLa cell cytotoxicity, dose response, cytotoxicity control, ATP luminescence, cherry-pick samples (AID 687004); format: functional, cell-based; conditions: Homo sapiens
Galanin receptor type 3 = target: T1, Galanin receptor type 3 (Homo sapiens, UniProt O60755); assay: Fluorescence-based cell-based primary high throughput dose response assay to identify antagonists of the Galanin Receptor 3 (GalR3).; format: functional
T1 sequence (O60755 whole entry): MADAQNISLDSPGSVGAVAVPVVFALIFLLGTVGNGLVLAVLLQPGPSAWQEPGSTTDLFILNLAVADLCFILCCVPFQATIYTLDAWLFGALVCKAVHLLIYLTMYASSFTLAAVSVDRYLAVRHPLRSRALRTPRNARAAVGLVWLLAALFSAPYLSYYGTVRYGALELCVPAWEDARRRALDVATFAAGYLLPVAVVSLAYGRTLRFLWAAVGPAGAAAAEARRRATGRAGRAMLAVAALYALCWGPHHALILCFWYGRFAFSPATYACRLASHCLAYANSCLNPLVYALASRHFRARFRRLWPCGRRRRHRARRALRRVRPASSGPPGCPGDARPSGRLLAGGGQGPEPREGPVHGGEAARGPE

cells [5] = format: functional, cell-based; conditions: HEK-CNG
[6] = target: T2, Heat shock factor protein 1 (Mus musculus, UniProt P38532); assay: inhibition of MG132-induced HSE-luciferase signal, confirmation, cell-based, NIH3T3, luminescence, dose retest (AID 2382); format: functional;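 note: NIH3T3 fibroblasts with HSF1-driven luciferase reporter stressed by proteasome inhibitor MG132; luminescence from HSF1-driven luciferase expression after 8 hours of MG132 stress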
T2 sequence (P38532 whole entry): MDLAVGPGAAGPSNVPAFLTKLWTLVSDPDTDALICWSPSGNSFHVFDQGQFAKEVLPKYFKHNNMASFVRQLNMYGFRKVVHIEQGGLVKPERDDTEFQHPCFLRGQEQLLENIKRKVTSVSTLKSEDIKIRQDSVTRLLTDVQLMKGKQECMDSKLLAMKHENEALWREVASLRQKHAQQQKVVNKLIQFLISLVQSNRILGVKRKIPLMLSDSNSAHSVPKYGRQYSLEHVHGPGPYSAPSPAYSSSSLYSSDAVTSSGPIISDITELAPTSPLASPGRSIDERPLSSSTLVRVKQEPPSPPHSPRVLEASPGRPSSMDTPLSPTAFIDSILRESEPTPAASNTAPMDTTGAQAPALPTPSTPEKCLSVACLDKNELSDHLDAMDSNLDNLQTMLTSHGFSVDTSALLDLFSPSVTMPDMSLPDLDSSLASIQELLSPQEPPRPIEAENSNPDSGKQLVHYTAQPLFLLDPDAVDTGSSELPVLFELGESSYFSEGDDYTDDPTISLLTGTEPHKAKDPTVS

[7] = target: T3, Calpain-2 catalytic subunit (Sus scrofa, UniProt P43367); assay: pig calpain II inhibitor potency, dose response, biochemical, fluorogenic peptide substrate (AID 1420); format: functional
T3 sequence (P43367 whole entry): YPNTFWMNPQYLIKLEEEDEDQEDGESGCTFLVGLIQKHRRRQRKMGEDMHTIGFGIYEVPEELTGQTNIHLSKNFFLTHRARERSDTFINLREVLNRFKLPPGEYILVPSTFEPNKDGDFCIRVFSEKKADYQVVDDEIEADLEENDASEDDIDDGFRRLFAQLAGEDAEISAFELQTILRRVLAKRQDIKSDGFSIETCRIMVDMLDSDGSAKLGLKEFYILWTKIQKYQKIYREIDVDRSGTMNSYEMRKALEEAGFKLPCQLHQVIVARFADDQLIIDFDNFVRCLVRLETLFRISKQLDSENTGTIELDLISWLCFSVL

cells [8] = format: functional, cell-based
cells [9] = format: functional, cell-based; remark: listed apart in the source
[10] = CEM21 lymphoblast cell cytotoxicity, dose response, cytotoxicity control for viral fusion inhibitor project, CellTiter-Glo luminescence, cherry-picked (AID 652042); format: functional, cell-based;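 note: potency for signal decrease meaning cytotoxicity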
[11] = miR-122 activators in hepatoma reporter cells, dose response, cell-based, Huh7 psiCHECK-miR122, Renilla luciferase, cherry-picked (AID 651956); format: functional;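 note: huh7 hepatoma cells stably carrying a psiCHECK-2 miR-122 sensor plasmid; renilla luciferase signal reporting endogenous miR-122 activity after 48 h compound exposure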
[12] = HEK293T cytotoxicity, dose response, cytotoxicity control for miR-122 modulator project, cell-based, inhibitor set, cherry-pick, set 2 (AID 720697); format: functional
[13] = target: T4, DNA repair protein RAD52 homolog (Homo sapiens, UniProt P43351); format: functional, biochemical
T4 sequence (P43351 whole entry): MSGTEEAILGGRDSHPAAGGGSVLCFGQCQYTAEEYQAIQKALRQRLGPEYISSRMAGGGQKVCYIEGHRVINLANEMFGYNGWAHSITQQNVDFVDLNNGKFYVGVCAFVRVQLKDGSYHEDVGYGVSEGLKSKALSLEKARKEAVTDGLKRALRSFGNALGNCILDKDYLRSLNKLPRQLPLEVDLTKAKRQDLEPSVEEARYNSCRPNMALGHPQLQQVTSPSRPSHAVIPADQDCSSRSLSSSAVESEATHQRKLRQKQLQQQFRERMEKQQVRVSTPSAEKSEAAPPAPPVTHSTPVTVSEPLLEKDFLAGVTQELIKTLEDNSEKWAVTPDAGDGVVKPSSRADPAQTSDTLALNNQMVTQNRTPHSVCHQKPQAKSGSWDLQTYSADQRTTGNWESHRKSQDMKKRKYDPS

[14] = cytotoxicity toward NIH3T3 fibroblasts, dose response, counter-screen, cell-based, ATP luminescence, mouse fibroblasts (AID 2010); format: functional;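 note: cells exposed to compound for about 90 hours before reading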
[15] = Counterscreen for activators of the function of SWI/SNF related, matrix associated, actin dependent regulator of chromatin, subfamily a, member 2 (SMARCA2, BRM): Luminescence-based cell-based high throughput dose response assay to identify non-selective compounds using the VP16 reporter assay.; format: functional
[16] = target: SWI/SNF-related matrix-associated actin-dependent regulator of chromatin subfamily A member 2 (Homo sapiens, UniProt P51531); assay: Luminescence-based cell-based high throughput dose response assay to identify activators of the function of SWI/SNF related, matrix associated, actin dependent regulator of chromatin, subfamily a, member 2 (SMARCA2, BRM).; format: functional
SWI/SNF-related matrix-associated actin-dependent regulator of chromatin subfamily A member 2, sequence (P51531 whole entry): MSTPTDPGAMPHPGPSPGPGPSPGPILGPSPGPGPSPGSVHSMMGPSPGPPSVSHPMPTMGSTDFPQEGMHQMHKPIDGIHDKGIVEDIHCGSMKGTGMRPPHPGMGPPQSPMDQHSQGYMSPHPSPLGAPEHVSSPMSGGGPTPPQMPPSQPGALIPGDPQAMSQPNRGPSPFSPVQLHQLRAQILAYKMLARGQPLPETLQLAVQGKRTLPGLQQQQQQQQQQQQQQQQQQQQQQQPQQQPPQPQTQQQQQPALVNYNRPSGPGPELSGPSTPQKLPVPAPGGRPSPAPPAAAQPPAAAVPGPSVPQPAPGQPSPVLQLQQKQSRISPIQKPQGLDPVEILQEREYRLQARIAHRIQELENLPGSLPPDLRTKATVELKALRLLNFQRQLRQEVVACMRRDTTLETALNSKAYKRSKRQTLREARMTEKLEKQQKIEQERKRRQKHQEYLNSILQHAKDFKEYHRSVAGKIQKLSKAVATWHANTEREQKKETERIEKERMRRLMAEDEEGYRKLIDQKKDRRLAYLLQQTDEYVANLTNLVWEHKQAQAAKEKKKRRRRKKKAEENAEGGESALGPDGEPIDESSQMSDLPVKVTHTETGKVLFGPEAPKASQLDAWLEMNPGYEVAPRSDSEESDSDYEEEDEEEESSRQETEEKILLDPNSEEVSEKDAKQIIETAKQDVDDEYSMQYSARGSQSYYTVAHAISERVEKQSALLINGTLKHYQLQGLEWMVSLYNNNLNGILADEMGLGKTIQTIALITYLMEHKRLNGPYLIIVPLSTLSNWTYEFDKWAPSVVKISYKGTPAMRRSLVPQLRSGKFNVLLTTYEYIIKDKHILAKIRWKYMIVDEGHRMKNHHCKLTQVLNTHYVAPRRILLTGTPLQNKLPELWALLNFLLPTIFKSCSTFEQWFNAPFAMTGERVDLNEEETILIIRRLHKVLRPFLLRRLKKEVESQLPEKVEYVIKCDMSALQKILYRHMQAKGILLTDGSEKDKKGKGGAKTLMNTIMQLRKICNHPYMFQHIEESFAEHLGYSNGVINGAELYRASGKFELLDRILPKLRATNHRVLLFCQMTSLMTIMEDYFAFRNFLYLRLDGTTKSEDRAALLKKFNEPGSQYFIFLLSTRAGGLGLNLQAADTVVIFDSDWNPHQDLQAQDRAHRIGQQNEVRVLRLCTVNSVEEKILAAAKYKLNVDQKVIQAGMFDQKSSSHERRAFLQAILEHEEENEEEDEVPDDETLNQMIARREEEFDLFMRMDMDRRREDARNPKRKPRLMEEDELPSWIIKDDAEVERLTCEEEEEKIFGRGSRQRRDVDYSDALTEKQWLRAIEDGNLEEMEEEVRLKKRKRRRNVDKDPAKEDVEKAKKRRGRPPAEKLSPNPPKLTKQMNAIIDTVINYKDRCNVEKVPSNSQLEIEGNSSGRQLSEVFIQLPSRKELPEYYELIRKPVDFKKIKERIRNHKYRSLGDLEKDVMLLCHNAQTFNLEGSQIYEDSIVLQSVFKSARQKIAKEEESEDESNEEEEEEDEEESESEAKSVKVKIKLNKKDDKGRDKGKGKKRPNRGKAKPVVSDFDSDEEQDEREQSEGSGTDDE

[17] = inhibitors of intracellular T. cruzi replication, confirmation, NIH3T3 host cells, beta-gal luminescence (AID 2044); format: functional, cell-based;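 note: intracellular parasites grown in NIH/3T3 mouse fibroblasts as host cells; luminescent beta-galactosidase reporter signal from transgenic T. cruzi replicating inside host cells; inhibitors lower the luminescence signal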
Aminopeptidase N = target: T5, Aminopeptidase N (Plasmodium falciparum FcB1/Columbia, UniProt O96935); assay: P. falciparum M1AAP inhibitors, biochemical, fluorogenic H-Leu-NHMec substrate, 1536-well (AID 1445); set-up: species or system Plasmodium falciparum 3D7, 3D7
T5 sequence (O96935 whole entry): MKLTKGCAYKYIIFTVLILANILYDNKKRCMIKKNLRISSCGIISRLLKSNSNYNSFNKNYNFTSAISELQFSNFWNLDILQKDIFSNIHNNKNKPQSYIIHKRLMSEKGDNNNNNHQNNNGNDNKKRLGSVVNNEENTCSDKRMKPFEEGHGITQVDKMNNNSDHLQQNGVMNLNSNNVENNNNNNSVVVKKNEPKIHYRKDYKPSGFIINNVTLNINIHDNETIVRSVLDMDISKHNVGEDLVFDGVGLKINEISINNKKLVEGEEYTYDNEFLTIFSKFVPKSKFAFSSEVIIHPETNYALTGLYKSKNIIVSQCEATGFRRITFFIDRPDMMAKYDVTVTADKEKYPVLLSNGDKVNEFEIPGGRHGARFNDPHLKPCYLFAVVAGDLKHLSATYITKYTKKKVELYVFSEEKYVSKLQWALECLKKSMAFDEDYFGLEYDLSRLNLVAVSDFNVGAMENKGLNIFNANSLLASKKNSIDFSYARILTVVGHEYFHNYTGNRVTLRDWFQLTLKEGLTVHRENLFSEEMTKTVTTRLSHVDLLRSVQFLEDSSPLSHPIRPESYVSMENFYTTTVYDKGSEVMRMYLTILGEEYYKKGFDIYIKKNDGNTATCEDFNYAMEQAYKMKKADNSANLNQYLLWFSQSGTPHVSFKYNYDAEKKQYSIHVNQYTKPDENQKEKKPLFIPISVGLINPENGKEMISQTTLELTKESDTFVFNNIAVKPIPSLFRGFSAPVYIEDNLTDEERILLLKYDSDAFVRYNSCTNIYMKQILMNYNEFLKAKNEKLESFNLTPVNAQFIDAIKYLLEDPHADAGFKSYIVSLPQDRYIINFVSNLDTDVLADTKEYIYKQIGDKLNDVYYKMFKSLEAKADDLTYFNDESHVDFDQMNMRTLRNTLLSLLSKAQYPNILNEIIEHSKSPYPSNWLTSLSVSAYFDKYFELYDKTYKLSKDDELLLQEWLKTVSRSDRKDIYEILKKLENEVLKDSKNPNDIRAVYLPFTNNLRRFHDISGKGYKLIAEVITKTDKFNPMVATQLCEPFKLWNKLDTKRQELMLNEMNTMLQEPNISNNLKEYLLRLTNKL

SMILES: COc1ccc(Cn2nnnc2C(c2cc3cccc(C)c3nc2O)N2CCOCC2)cc1 (stereo unspecified)
- AC50 [1]: 6.17 µM (active)
- AC50 [2]: 5.44 µM (active)
- AC50 [3]: 7.1 µM (active)
- AC50 [4]: 6.52 µM (active)

SMILES: COC(=O)C1=C(C)N(Cc2ccccc2)C(=S)N[C@H]1c1cccc(C(F)(F)F)c1
- AC50 (HeLa): > 52 µM (inactive)

SMILES: COc1cc(CCC(=O)OCC(=O)Nc2sccc2C(N)=O)cc(OC)c1OC
- IC50 (Galanin receptor type 3): 1.55 µM (active)
- EC50 (cells [5]): > 29.9 µM (inactive)

SMILES: N#Cc1c(N)nc2c3c(sc(=N)c2c1N)NC(=O)CC3c1ccccc1 (stereo unspecified)
- EC50 [6]: > 195 µM (not active)
- IC50 (Galanin receptor type 3): > 29.9 µM (inactive)
- EC50 (cells [5]): > 29.9 µM (inactive)

SMILES: O=C(NCCc1ccccc1)c1cnc2n(c1=O)CCS2
- IC50 [7]: 24.2 µM (not active)
- EC50 (cells [8]): > 29.9 µM (inactive)
- IC50 (cells [9]): > 29.9 µM (inactive)

SMILES: NC(c1csc(NC(=O)Nc2cccc(Cl)c2)n1)c1ccccc1Cl (stereo unspecified)
- AC50 [1]: 28.5 µM (active)
- AC50 [2]: 16.2 µM (active)
- AC50 [3]: 29.4 µM (active)
- AC50 [4]: 11.9 µM (active)
- AC50 [10]: 16.4 µM (active)

SMILES: C[C@@H]1CN([C@@H](C)CO)S(=O)(=O)c2ccc(-c3ccc(C(=O)N(C)C)cc3)cc2O[C@@H]1CN(C)C(=O)C1CCC1
- AC50 [11]: 13.8 µM (active)
- AC50 [12]: 0.516 µM (active)

SMILES: Cc1nc(NC(=N)N)nc2c(C)cccc12
- AC50 [13]: 1.4 µM (active)
- EC50 [14]: > 60 µM (not active)
- EC50 [15]: > 91.1 µM (inactive)
- EC50 [16]: > 10.1 µM (inactive)
- EC50 [17]: 0.371 µM (active)
- IC50 (Aminopeptidase N): 47.6 µM (active)
